# Data as given in US8916716B2, “Process for the preparation of crystalline form II of L-malic acid salt of sunitinib” (Ranbaxy Laboratories Limited, priority 2009, dated 2014).
# Experiments:
# [1] = Moisture content by KF, initial and after storage; assay type: physicochemical
# [2] = Solid form stability on storage, followed by XRPD; assay type: physicochemical; details: storage for about 20 days or more
# Description: The XRPD of the samples were determined by using Panalytical X'Pert Pro X-Ray Powder Diffractometer in the range 3-40 degree 2 theta and under tube voltage and current of 45 Kv and 40 mA respectively. Copper radiation of wavelength 1.54 angstrom and Xceletor detector was used.
# The solvent was evaporated at a temperature of about 60° C. to about 65° C. through spray drying.
# [3] = described in WO 2009/104021; cited from earlier work
Moisture content by KF ([1]; after storage at 20° C. to 25° C. for 60 days) [%],moisture absorbed (level) ([1]; general statement on the stable Form II),Moisture content by KF ([1]; initial) [%],SMILES,conversion into any other solid form on storage [2],conversion to another crystal form [3],hygroscopicity [3],thermodynamic stability [3]
5.52,not more than 2%,4.48,"CCN(CC)CCNC(=O)c1c(C)[nH]c(/C=C2\C(=O)Nc3ccc(F)cc32)c1C [Example 1, butanedioic acid, hydroxy-, (2S)—, compound with N-[2-(diethylamino)ethyl]-5-[(Z)-(5-fluoro-1,2-dihydro-2-oxo-3H-indol-3-ylidine)methyl]-2,4-dimethyl-1H-pyrrole-3-carboxamide (1:1)]",does not convert into any other solid form,–,–,–
–,–,–,"CCN(CC)CCNC(=O)c1c(C)[nH]c(/C=C2\C(=O)Nc3ccc(F)cc32)c1C [Form II of sunitinib L-malate, butanedioic acid, hydroxy-, (2S)—, compound with N-[2-(diethylamino)ethyl]-5-[(Z)-(5-fluoro-1,2-dihydro-2-oxo-3H-indol-3-ylidine)methyl]-2,4-dimethyl-1H-pyrrole-3-carboxamide (1:1)]",–,appears to readily convert to Form I,hygroscopic,thermodynamically unstable
